From patent US9493507B2, “Glutathione-elevating compositions and uses thereof” (Oneday— Biotech And Pharma Ltd., priority 2012, dated 2016)
“Also recorded” adds a separate entry of the source.

Test system: murine erythrocytes
Experiment: Effect of DY-65 on GSH, GSSG and GSH:GSSG ratio in murine erythrocytes exposed to hydrogen peroxide
Format: cell-based, mice
Details: DY-65 5 μM
Protocol: The in vitro efficacy of peptide DY-65 in suppressing the decrease in the ratio of GSH to GSSG in murine erythrocytes exposed to hydrogen peroxide was tested.
Murine erythrocytes (“Cells”) were prepared by washing freshly harvested whole blood from mice three times in PBS. Cells were resuspended in DMEM at a concentration of 10^6 per mL. All study conditions were evaluated in triplicate.
Hydrogen peroxide (200 μM) was utilized to induce redox stress in murine erythrocytes (“Cells”). Prior to exposure to hydrogen peroxide, cells were randomly allocated to the following experimental groups:
1. Sham (no exposure to hydrogen peroxide; no drug) • a. 2.5 h final incubation
2. Vehicle control (hydrogen peroxide; no drug) • a. 1.0 h final incubation • b. 1.5 h final incubation • c. 2.0 h final incubation • d. 2.5 h final incubation
3. DY-65 (5 μM)+hydrogen peroxide • a. 1.0 h final incubation • b. 1.5 h final incubation • c. 2.0 h final incubation • d. 2.5 h final incubation
Cells at a concentration of 10^6 per mL were incubated with vehicle DMEM (Groups 1 or 2) or peptide DY-65 (Group 3) for 3 hours at 37° C. Thereafter, cells were washed three times with DMEM and resuspended in vehicle DMEM (Group 1) or hydrogen peroxide in DMEM (Groups 2-3) for 1 hour at 37° C.
Thereafter, cells were washed three times with DMEM and resuspended in DMEM at 37° C., 10^6 per mL, with peptide DY-65 (Group 3) or without peptide DY-65 (Groups 1-2). The duration of final incubation was 1.0, 1.5, 2.0, or 2.5 h. Cells were then pelleted, lysed, and processed for measurement of GSH and GSSG using a Glutathione Assay kit sold by Cayman (Chemical Item Number 703002). Data were expressed as micromoles of GSH or GSSG per 1 million erythrocytes.
Given 9 conditions, 3 replicates per condition, and 2 endpoints (GSH and GSSG), a total of 54 wells were incubated.
Data analysis. All values in the figure and text below were expressed as mean±standard deviation (SD) and standard error (SE) of n observations. The results were analyzed by one-way ANOVA followed by Tukey's post-hoc test for multiple comparisons. […]

## N-acetyl-Cys-Lys-Met-Cys-NH2 (Ac-CKMC-NH2; cysteine pairing not given here) [DY-65]
Hydrogen peroxide 200 μM 1 h, 1 h final incubation, FIG. 2C
  effect on GSH concentration after hydrogen peroxide: completely protective; also recorded: increase GSH
Hydrogen peroxide 200 μM 1 h, final incubation 1.0-2.5 h, FIG. 2D
  effect on GSSG elevation in response to hydrogen peroxide: uniformly effective in suppressing the elevation of GSSG; also recorded: decrease GSSG
Hydrogen peroxide 200 μM, earliest time point, 1 h post exposure, FIG. 2E
  ratio of GSH to GSSG: clear benefit
